pIC50: −log10 of the molar value. Active and inactive are the calls of the source. The calls are words filed in the database; no cut-off is given here.
How the values were obtained:
[1] = biological target: Glycogen synthase kinase-3 beta (Homo sapiens, UniProt P49841); test: Inhibition of GSK-3beta (unknown origin) incubated for 1 hr by HTRF assay
[2] = Metabolic stability in human liver microsomes assessed as compound remaining at 0.5 uM after 10 mins; format: ADME, Microsome; conditions: read-out: Stability
[3] = Metabolic stability in mouse liver microsomes assessed as compound remaining at 0.5 uM after 10 mins; format: ADME, Microsome; conditions: read-out: Stability
[4] = Metabolic stability in rat liver microsomes assessed as compound remaining at 0.5 uM after 10 mins; format: ADME, Microsome; conditions: read-out: Stability
Mus musculus = test: Anti-alzheimer activity in triple-transgenic mouse model at 30 mg/kg, po; format: functional, organism-based

Sequence of Glycogen synthase kinase-3 beta (P49841 whole entry): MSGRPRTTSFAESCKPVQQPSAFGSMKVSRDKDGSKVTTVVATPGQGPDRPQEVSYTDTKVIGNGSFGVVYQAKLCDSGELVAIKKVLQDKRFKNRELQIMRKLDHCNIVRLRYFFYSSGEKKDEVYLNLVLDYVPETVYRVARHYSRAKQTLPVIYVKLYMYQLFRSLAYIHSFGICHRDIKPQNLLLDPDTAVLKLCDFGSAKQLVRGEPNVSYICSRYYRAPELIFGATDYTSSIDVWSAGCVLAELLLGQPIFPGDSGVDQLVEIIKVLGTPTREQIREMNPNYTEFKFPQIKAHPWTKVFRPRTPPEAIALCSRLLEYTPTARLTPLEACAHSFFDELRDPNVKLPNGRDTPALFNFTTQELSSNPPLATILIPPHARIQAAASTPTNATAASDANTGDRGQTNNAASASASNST

pIC50 [1]	remaining at 10 min, 0.5 µM [2] [%]	remaining at 10 min, 0.5 µM [3] [%]	remaining at 10 min, 0.5 µM [4] [%]	SMILES	Activity (Mus musculus)
10.00	87	27	100	CC(C)(O)c1ccncc1NC(=O)c1ccnc(NC(=O)C2CC2)c1	
8.60				O=C(Nc1cncc(-c2cccc(F)c2F)c1)c1ccnc(NC(=O)C2CCC(F)(F)C2)c1 (centres undefined)	
	93	82	97	Cc1ccncc1NC(=O)c1ccnc(NC(=O)C2CC2)c1	
8.16				O=C(Nc1cnccc1-c1ccc(Cl)cc1)c1ccnc(NC(=O)[C@H]2C[C@@H](F)C2)c1	
	4	0.2	1	C[C@@H]1COCCN1c1ccncc1NC(=O)c1ccnc(NC(=O)C2CC2)c1	
8.52	88	90		O=C(Nc1cncc(-c2ccccc2F)c1)c1ccnc(NC(=O)C2CC2)c1	inactive
9.80				O=C(Nc1cnccc1N1CCC(F)(F)CC1)c1ccnc(NC(=O)[C@H]2C[C@@H](Cl)C2)c1	
8.05				O=C(Nc1cncc(-c2ccccc2)c1)c1ccnc(NC(=O)C2CC2)c1	
	0.9	0.4	0.4	CC1(C)COCCN1c1ccncc1NC(=O)c1ccnc(NC(=O)C2CC2)c1	
8.77				O=C(Nc1cnccc1-c1ccc(Cl)cc1)c1ccnc(NC(=O)[C@H]2C[C@H](F)C2)c1	
8.85				CC(C)C(=O)Nc1cc(C(=O)Nc2cnccc2OCC(C)(F)F)ccn1	
8.55				CC(C)C(=O)Nc1cc(C(=O)Nc2cnccc2OCCC(C)(C)O)ccn1	
8.43				O=C(Nc1cncc(-c2cc(F)ccc2F)c1)c1ccnc(NC(=O)C2CC2)c1	
8.44	86	35	82	O=C(Nc1cnccc1C(O)C(F)(F)F)c1ccnc(NC(=O)C2CC2)c1 (centres undefined)	
	85	57	79	O=C(Nc1cnccc1C(=O)C(F)(F)F)c1ccnc(NC(=O)C2CC2)c1	
	84	2	63	O=C(Nc1cnccc1N1CCOCC1)c1ccnc(NC(=O)C2CC2)c1	
	66	1	40	C[C@H]1CN(c2ccncc2NC(=O)c2ccnc(NC(=O)C3CC3)c2)CCO1	
	17	1	6	O=C(Nc1cnccc1N1CCCCC1)c1ccnc(NC(=O)C2CC2)c1	

pIC50 [1]	remaining at 10 min, 0.5 µM [2] [%]	remaining at 10 min, 0.5 µM [3] [%]	remaining at 10 min, 0.5 µM [4] [%]	SMILES	Activity (Mus musculus)
	87	14	78	CC(C)c1ccncc1NC(=O)c1ccnc(NC(=O)C2CC2)c1	
	1	0.6	0.4	O=C(Nc1cnccc1C1CCCCC1)c1ccnc(NC(=O)C2CC2)c1	
	99	86	100	O=C(Nc1cnccc1C(F)(F)F)c1ccnc(NC(=O)C2CC2)c1	
8.35				O=C(Nc1cnccc1-c1ccccc1)c1ccnc(NC(=O)C2CCOCC2)c1	
	72	1	43	O=C(Nc1cnccc1C1CCC1)c1ccnc(NC(=O)C2CC2)c1	
	35	0.4	16	CC1(C)CN(c2ccncc2NC(=O)c2ccnc(NC(=O)C3CC3)c2)CCO1	
	34	4	26	C[C@@H]1CN(c2ccncc2NC(=O)c2ccnc(NC(=O)C3CC3)c2)C[C@H](C)O1	
	9	0.2	3	C[C@H]1COCCN1c1ccncc1NC(=O)c1ccnc(NC(=O)C2CC2)c1	
	88	3	57	C=C(C)c1ccncc1NC(=O)c1ccnc(NC(=O)C2CC2)c1	
9.72	25	0.2	6	O=C(Nc1cnccc1N1CCC(F)(F)CC1)c1ccnc(NC(=O)C2CC2)c1	
8.24				O=C(Nc1cnccc1-c1ccccc1)c1ccnc(NC(=O)C2CCC2)c1	
	100	77	100	CC(O)c1ccncc1NC(=O)c1ccnc(NC(=O)C2CC2)c1 (centres undefined)	
	7	0.5	1	O=C(Nc1cnccc1C1CCCC1)c1ccnc(NC(=O)C2CC2)c1	
	56	3	36	C[C@@H]1CN(c2ccncc2NC(=O)c2ccnc(NC(=O)C3CC3)c2)CCO1	
9.43				O=C(Nc1cnccc1N1CCC(F)(F)CC1)c1ccnc(NC(=O)[C@H]2C[C@H](Cl)C2)c1	
8.68				O=C(Nc1cnccc1-c1ccccc1)c1ccnc(NC(=O)C2CCCC2)c1	
7.31				CC(F)C(=O)Nc1cc(C(=O)Nc2cnccc2-c2ccccc2)ccn1 (centres undefined)	
8.59				O=C(Nc1cncc(-c2cccc(F)c2F)c1)c1ccnc(NC(=O)C2CC2)c1	

Reference: ChEMBL document CHEMBL5236670 (Bioorg Med Chem Lett, 2023)
